pIC50: −log10 of the molar value.
Tests used:
[1] = biological target: T1, Histone-lysine N-methyltransferase NSD2 (Homo sapiens, UniProt O96028); test: Inhibition of recombinant human NSD2 (941 to 1240 residues) using unmethylated histone H3 as substrate incubated for 40 mins in the presence of SAM and nucleosomes by AlphaLISA method
T1 sequence (O96028 whole entry): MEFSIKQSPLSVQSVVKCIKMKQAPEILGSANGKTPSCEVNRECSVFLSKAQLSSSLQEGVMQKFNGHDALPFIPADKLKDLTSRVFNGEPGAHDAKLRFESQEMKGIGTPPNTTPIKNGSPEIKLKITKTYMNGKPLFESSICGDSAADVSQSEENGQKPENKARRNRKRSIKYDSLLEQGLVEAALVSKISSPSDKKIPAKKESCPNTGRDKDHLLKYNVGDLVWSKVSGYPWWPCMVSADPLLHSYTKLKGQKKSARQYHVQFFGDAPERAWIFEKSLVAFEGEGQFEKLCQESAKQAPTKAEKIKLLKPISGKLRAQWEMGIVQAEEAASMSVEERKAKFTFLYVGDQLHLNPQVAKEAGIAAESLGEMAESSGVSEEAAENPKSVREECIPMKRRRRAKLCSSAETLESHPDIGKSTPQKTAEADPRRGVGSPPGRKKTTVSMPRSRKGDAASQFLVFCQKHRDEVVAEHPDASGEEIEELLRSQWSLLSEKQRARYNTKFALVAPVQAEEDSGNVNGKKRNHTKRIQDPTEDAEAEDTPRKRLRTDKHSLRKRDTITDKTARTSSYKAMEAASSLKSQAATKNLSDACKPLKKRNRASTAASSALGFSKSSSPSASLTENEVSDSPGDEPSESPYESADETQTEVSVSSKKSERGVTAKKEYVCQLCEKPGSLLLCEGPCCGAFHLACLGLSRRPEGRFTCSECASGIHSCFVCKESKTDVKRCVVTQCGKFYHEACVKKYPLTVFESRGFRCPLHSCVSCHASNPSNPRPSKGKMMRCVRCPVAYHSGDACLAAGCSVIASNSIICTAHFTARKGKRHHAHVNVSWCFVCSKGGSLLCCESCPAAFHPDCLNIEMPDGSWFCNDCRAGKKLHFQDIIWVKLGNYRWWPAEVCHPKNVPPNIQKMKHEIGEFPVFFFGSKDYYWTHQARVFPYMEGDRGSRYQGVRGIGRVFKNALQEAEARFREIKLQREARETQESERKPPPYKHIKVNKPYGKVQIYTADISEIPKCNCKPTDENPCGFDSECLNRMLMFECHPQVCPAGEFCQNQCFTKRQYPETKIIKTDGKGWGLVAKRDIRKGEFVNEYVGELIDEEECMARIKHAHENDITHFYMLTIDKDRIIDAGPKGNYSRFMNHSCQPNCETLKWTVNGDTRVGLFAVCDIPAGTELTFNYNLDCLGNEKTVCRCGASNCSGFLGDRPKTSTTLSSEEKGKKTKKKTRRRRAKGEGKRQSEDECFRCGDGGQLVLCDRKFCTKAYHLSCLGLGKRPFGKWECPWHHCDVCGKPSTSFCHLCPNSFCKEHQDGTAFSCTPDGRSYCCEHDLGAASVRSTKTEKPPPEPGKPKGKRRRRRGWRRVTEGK

[2] = biological target: T2, Histone-lysine N-methyltransferase EHMT2 (Homo sapiens) (UniProt Q96KQ7); test: Inhibition of G9a (unknown origin) at 10 uM by AlphaLISA assay relative to control
T2 sequence (whole entry): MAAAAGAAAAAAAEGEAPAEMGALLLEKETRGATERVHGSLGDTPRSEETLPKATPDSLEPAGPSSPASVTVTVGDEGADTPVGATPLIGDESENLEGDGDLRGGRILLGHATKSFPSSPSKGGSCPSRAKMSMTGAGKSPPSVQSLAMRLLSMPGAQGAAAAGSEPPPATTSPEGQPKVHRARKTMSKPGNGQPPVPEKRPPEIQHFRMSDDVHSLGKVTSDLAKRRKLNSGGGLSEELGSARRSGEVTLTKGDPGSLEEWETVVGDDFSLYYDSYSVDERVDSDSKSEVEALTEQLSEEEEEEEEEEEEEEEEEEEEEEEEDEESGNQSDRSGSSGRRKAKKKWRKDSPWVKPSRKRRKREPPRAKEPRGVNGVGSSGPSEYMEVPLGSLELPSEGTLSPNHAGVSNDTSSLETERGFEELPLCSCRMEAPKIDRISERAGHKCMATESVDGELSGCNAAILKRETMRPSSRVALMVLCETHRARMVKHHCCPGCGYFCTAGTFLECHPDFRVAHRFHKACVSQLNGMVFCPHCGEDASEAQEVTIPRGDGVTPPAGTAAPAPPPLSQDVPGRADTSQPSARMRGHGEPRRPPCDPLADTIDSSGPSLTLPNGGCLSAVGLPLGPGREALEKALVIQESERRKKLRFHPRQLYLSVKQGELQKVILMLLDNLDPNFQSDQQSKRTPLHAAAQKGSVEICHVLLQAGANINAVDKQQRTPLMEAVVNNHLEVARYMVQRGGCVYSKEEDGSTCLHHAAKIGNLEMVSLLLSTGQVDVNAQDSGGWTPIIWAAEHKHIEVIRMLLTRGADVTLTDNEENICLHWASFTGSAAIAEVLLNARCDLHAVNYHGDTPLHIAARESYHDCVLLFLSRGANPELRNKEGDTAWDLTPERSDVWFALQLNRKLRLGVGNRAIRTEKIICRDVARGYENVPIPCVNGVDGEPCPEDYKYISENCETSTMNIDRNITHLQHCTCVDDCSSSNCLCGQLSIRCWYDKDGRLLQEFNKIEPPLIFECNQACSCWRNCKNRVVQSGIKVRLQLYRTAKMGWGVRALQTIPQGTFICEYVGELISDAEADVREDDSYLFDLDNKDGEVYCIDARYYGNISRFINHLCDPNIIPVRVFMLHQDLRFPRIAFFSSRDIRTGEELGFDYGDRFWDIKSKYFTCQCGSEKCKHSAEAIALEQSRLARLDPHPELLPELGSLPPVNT

[3] = biological target: T2, Histone-lysine N-methyltransferase EHMT2 (Homo sapiens); test: Inhibition of G9a (unknown origin) at 1 uM by AlphaLISA assay relative to control

Compound | pIC50 [1] | inhibition [2] | inhibition [3]
COc1cc2nc(CN)nc(NC3CCN(Cc4ccccc4)CC3)c2cc1OC | 5.85 | 95.4% | 34.8%
COc1cc2nc(-c3ccccc3)nc(NC3CCN(Cc4ccccc4)CC3)c2cc1OC | < 5.30 | 99.2% | 29.9%
COc1cc2nc(N)nc(NC3CCN(Cc4ccccc4)CC3)c2cc1OC | 5.81 | 99.6% | 99.1%
COc1cc2nc(N3CCOCC3)nc(NC3CCN(Cc4ccccc4)CC3)c2cc1OC | < 5.30 | 98.5% | 98.7%
COc1cc2nc(C#N)nc(NC3CCNCC3)c2cc1OC | 5.85 |  | 
COc1cc2nc(C#N)nc(NC3CCN(C4CCCCC4)CC3)c2cc1OC | 5.92 |  | 
COc1cc2nc(N3CCCN(C)CC3)nc(NC3CCN(Cc4ccccc4)CC3)c2cc1OC | 5.76 | 98.8% | 98.3%
CC#CC(=O)NC12CC(NC3=C(Cl)C(=O)c4ncccc4C3=O)(C1)C2 | 6.61 |  | 
COc1cc2nc(C#N)nc(NC3CCN(C(C)=O)CC3)c2cc1OC | 5.56 |  | 
COc1cc2c(NC3CCN(C(C)C)CC3)nc(C#N)nc2cc1O | 7.22 |  | 
COc1cc2nc(C#N)nc(Nc3ccc(N4CCN(C)CC4)cc3)c2cc1OC | 5.50 |  | 
COCCOc1cc2nc(C#N)nc(NC3CCN(C(C)C)CC3)c2cc1OC | 7.54 |  | 
COc1ccc2c(NC3CCN(C(C)C)CC3)nc(C#N)nc2c1 | 6.57 |  | 
CCCN1CCC(Nc2nc(C#N)nc3cc(OC)c(OC)cc23)CC1 | 6.24 |  | 
COc1cc2nc(C#N)nc(NC3CCN(C)CC3)c2cc1OC | 6.69 |  | 
COc1cc2nc(C#N)nc(NCC3CCN(C)CC3)c2cc1OC | 5.61 |  | 
COc1cc2c(NC3CCN(C(C)C)CC3)nc(C#N)nc2cc1OCCN1CCOCC1 | 7.36 |  | 
COc1cc2nc(N(C)C)nc(NC3CCN(Cc4ccccc4)CC3)c2cc1OC | 5.82 | 99.1% | 99.6%

Compound | pIC50 [1] | inhibition [2] | inhibition [3]
COc1cc2nc(C#N)nc(NC3CCCC3)c2cc1OC | < 5.30 |  | 
COc1cc2nc(C#N)nc(NC3CCN(C4CC4)CC3)c2cc1OC | 7.35 |  | 
COc1cc2nc(C#N)nc(OC3CCN(C)CC3)c2cc1OC | 5.60 |  | 
COc1cc2nc(C#N)nc(N(C)C3CCN(C)CC3)c2cc1OC | 5.42 |  | 
COc1cc2c(NC3CCN(C(C)C)CC3)nc(C#N)nc2cc1OCCCN1CCC(F)(F)CC1 | 7.49 |  | 
COc1cc2nc(C#N)nc(NC3CCN(C(=O)OC(C)(C)C)CC3)c2cc1OC | 5.48 |  | 
COc1cc2c(NC3CCN(C(C)C)CC3)nc(C#N)nc2cc1OCc1ccccc1 | 7.31 |  | 
COc1cc2nc(C#N)nc(NC3CCN(Cc4ccccc4)CC3)c2cc1OC |  | 5.6% | 2.8%
CC(C)N1CCC(Nc2nc(C#N)nc3ccccc23)CC1 | 6.42 |  | 
CCN1CCC(Nc2nc(C#N)nc3cc(OC)c(OC)cc23)CC1 | 5.82 |  | 
COc1cc2c(NC3CCN(C(C)C)CC3)nc(C#N)nc2cc1OCCCN1CCC(F)(F)C1 | 7.42 |  | 
CNc1nc(NC2CCN(Cc3ccccc3)CC2)c2cc(OC)c(OC)cc2n1 | 5.82 | 99.4% | 99.5%
COc1cc2nc(C#N)nc(NC3CCOCC3)c2cc1OC | 5.31 |  | 
COc1cc2nc(C#N)nc(NC3CCCCC3)c2cc1OC | 5.34 |  | 
COc1ccc2nc(C#N)nc(NC3CCN(C(C)C)CC3)c2c1 | 7.07 |  | 
COc1cc2nc(N3CCCCC3)nc(NC3CCN(Cc4ccccc4)CC3)c2cc1OC | < 5.30 | 99.2% | 98%
COc1cc2ncnc(NC3CCN(Cc4ccccc4)CC3)c2cc1OC | 5.84 | 82.4% | 27.4%
COc1cc2nc(C#N)nc(N3CCN(C)CC3)c2cc1OC | 5.37 |  | 
